In patent US20160095923A1, “ORAL COMPOSITION COMPRISNG (+)-CATECHIN” (VALORE, priority 2013, published 2016):

Tests used:
[1] = Bioavailability after oral administration in human beings (free monomeric (+)-catechin in plasma, LC-MS/MS)
Procedure: (§1) The experimental results described below were obtained on the basis of a study carried out in healthy human beings and in healthy Wistar rats weighing approximately 250 grams.
(§2) With regard to taking the blood samples from the rats and from the human beings, the blood was collected in tubes internally coated with EDTA and was then centrifuged at 3000 rpm (revolutions per minute) at ambient temperature for 45 min, and then for 15 min at a temperature of 4° C. The plasma was then collected and stored at −70° C. before analysis.
(§3) The analytical technique (LC-MS/MS for Liquid Chromatography coupled to tandem Mass Spectrometry) for measuring the active substance in the blood was based on the method described by Mata-Bilbao et al., published in 2007 in the Journal of Agricultural and Food Chemistry, volume 55, page 8857.
(§4) The free (+)-catechin was extracted from the plasma with a solution of phosphoric acid, EDTA and ascorbic acid and was then purified by SPE (solid phase extraction); in particular, it is an Oasis™ HLB extraction which is analyzed by LC-MS/MS. The quantification was carried out according to a standard calibration procedure with (+/−)-catechin-2,3,4-^13C3 as internal standard (SI).
This complex salt is administered to a group A of 5 healthy volunteers.
This ct parameter makes it possible to calculate, from the data of table 1, the bioavailability of the (+)-catechin expressed in ng h/ml.

Solubility in water = type: physicochemical
[2] = Bioavailability after oral administration or intravenous injection in Wistar rats (free/total polyphenol in plasma, LC-MS/MS); conditions: per os
Procedure: as §1
An acclimation period was observed before beginning the experiments.
The rats received an administration per os of a volume of 5 ml of a solution of active product.
as §2, §3, §4
The procedure is identical with regard to the extraction and the quantification of free quercetin or ECGC in the blood.
With regard to the extraction and quantification of the total (+)-catechin, the procedure is the same as that applied to the free (+)-catechin, with the exception of the fact that an additional step prior to the purification by SPE is carried out.
Each of the mixtures is then solubilized in water.
Each of the mixtures is solubilized in water.

rat skin = assay: Total incorporation and incorporation into collagen of 3H-proline in the skin; type: in vivo, Wistar rats; conditions: 100 mg/kg by gavage for 5 days
Procedure: To do this, a study was carried out in vivo on a batch of 24 female Wistar rats weighing from 95 to 115 g, divided into two groups C and D, each of 12 rats. For each group, the radioactive 3H-hydroxyproline, the specific activity of which is 13.6 Ci/10^−3 mol, was administered to all the animals by intraperitoneal injection of proline-L-(5-3H) at a dose, relative to the weight of the individuals, of 1 mCi/kg, which represents an activity in terms of radioactive 3H-proline of 100 μCi/individual.
6 rats of each group received a treatment based on monomeric (+)-catechin by gavage in a proportion of 100 mg/kg for 5 days before sacrifice. […] The group C received monomeric (+)-catechin hydrochlorolysinate, while the group D received monomeric (+)-catechin ascorbolysinate.
In table 8, the level of incorporation is measured by the number of disintegrations of the radioactive 3H-hydroxyproline per minute (dpm) per mg of dry weight. The higher this number, the higher the concentration of 3H-hydroxyproline.
In this comparative example, a group E of 12 Wistar rats weighing from 95 to 115 g, in which radioactive 3H-hydroxyproline, the specific activity of which is 13.6 Ci/10^−3 mol, was administered to all the individuals by intraperitoneal injection of proline-L-(5-3H) at a dose, relative to the weight of the individuals, of 1 mCi/kg, which represents an activity in terms of radioactive 3H-proline of 100 ρCi/individual.
6 rats of each group received a treatment based on pure monomeric (+)-catechin by gavage in a proportion of 100 mg/kg for 5 days before sacrifice.
In table 9, the level of incorporation is measured by the number of disintegrations of the radioactive 3H-hydroxyproline per minute (dpm) per mg of dry weight. The higher this number, the higher the concentration of 3H-hydroxyproline.

[3] = group B, oral 1 g pure catechin, free catechin
[4] = free catechin, dose equivalent to 100 mg/kg catechin, 5 rats
[5] = free catechin, equivalent to 25 mg/kg, 3 rats (comparative example 4)
[6] = free catechin, equivalent to 25 mg/kg, 5 rats, mixture dissolved in water (comparative examples 6-9)
[7] = total (+)-catechin, equivalent to 25 mg/kg, 3 rats

Oc1cc(O)c2c(c1)O[C@H](c1ccc(O)c(O)c1)[C@@H](O)C2 [CP, (+)-catechin]
plasma concentration (cc) of free monomeric (+)-catechin ([1]; group B, oral 1 g pure catechin, T 0.5 h): 59 ± 61 ng/mL
plasma concentration (cc) of free monomeric (+)-catechin ([1]; group B, oral 1 g pure catechin, T 1 h): 266 ± 147 ng/mL
plasma concentration (cc) of free monomeric (+)-catechin ([1]; group B, oral 1 g pure catechin, T 2 h): 230 ± 87 ng/mL
plasma concentration (cc) of free monomeric (+)-catechin ([1]; group B, oral 1 g pure catechin, T 3 h): 226 ± 38 ng/mL
plasma concentration (cc) of free monomeric (+)-catechin ([1]; group B, oral 1 g pure catechin, T 4 h): 128 ± 51 ng/mL
plasma concentration (cc) of free monomeric (+)-catechin ([1]; group B, oral 1 g pure catechin, T 6 h): 27 ± 13 ng/mL
T (max) [1, 3]: 1.20 h
ct (total concentration, area under curve over 6 h) [1, 3]: 904 ± 163 ng·h/mL
c (max) ([1]; oral 1 g pure catechin, free catechin): 280 ng/mL
T (max) ([1]; oral, humans, as stated in summary text): 1.33 h
c (max) related to 0.92 g of pure (+)-catechin ([1]; oral, scaled from 1 g to 0.92 g dose): 258 ng/mL
ct related to 0.92 g of pure (+)-catechin ([1]; oral, scaled from 1 g to 0.92 g dose, listed as pure (+)-catechin): 832 ± 150 ng·h/mL
solubility in water (Solubility in water; at 20° C.): 0.9 g per liter
solubility in water, times lower than in the form of a complex (Solubility in water; pure catechin versus complex with basic amino acid): 400 times
Δct (difference of ct to CP) ([2]; free catechin, dose equivalent to 100 mg/kg catechin): 0%
T (max) [2, 4]: 60 min
c (max) [2, 4]: 716 ng/mL
ct [2, 4]: 96 238 ng min/ml
Δct (difference of ct to CP) ([2]; free catechin, equivalent to 25 mg/kg (comparative example 4)): 0%
Δct (difference of ct to CP) ([2]; free catechin, equivalent to 25 mg/kg (comparative examples 7-9)): 0%
T (max) [2, 5]: 30 min
c (max) [2, 5]: 154 ng/mL
ct [2, 5]: 21 145 ng min/ml
T (max) [2, 6]: 60 min
c (max) [2, 6]: 580 ng/mL
Δct (difference of ct to CP) ([2]; total (+)-catechin, equivalent to 25 mg/kg): 0%
T (max) [2, 7]: 30 min
c (max) [2, 7]: 2200 ng/mL
ct [2, 7]: 273 875 ng min/ml
increase in the level of incorporation versus control (rat skin): +16%
level of incorporation into collagen (IC) of 3H-hydroxyproline in rat skin (rat skin; treated subgroup): 1124 ± 51 dpm/mg
level of total incorporation (IT) of 3H-hydroxyproline in rat skin (rat skin; treated subgroup): 5689 ± 410 dpm/mg
